# Measurements as given in US20060189698A1, “Treatment of interstitial cystitis” (priority 2005, published 2006).
# Counter-ions that a name gives are not always drawn.
# System: women with severe chronic bladder pain
# Assay: Treatment of pelvic pain of bladder origin with dextroamphetamine sulfate (two case reports)
# Assay type: in vivo, human
# Details: for effect of earlier conventional therapy on bladder pain (patient's claim): before dextroamphetamine sulfate
# Source text: Treatment of Pelvic Pain of Bladder Origin with Dextroamphetamine Sulfate.
# Two women with severe chronic bladder pain unresponsive to conventional therapy were offered a novel therapy with dextroamphetamine sulfate. In the first patient, the bladder pain started […] in an intermittent manner for six months and then it became daily. The pain was described as a constant feeling of urgency and pain from the urethra to the bladder on walking. They scored an 18 on the pelvic pain and urging/frequency PST. A laparoscopy […] found minimal endometriosis. A cystoscopy was negative as were repeated urine cultures. […] They failed a water load test excreting only 1000 mL urine after standing 4 hours after drinking 1500 mL.
# In the second patient, the pain also began intermittently for six months […]. The pain then began occurring daily and was worse with intercourse and for three days premenstrually. The pain was described as a constant feeling of pressure in the bladder with intense pain after urination. Urine cultures were negative and empirical antibiotics provided no relief. They also failed the water load test.
# Dextroamphetamine sulfate spansules (10 mg) were given twice daily to the first patient and once daily to the second patient.
# [1] = first patient, spansules 10 mg twice daily
# [2] = second patient, spansules 10 mg once daily
SMILES,effect of earlier conventional therapy on bladder pain (patient's claim) (first patient),"symptom status after being weaned off the drug (first patient, after 1.5 years on medication)",bladder pain response [1],time pain free while remaining on medication [1] [years],"symptoms on interruption and resumption of medication (second patient, forgot their pills on a short trip)",bladder pain response [2],time remaining pain free [2]
CC(C)(C)NC(=O)[C@H]1CC[C@H]2[C@@H]3CC[C@H]4NC(=O)C=C[C@]4(C)[C@H]3CC[C@]12C [finasteride],made it worse,–,–,–,–,–,–
"C[C@H](N)Cc1ccccc1 [Dextroamphetamine sulfate, dextroamphetamine sulfate]",–,remained symptom free for six months,pain completely disappeared within two days,1.5,symptoms returned immediately but then disappeared immediately upon resumption of medication,pain decreased immediately and gradually improved daily for one week when it completely disappeared,remained pain free for four months
CCN(CC)CC#CCOC(=O)C(O)(c1ccccc1)C1CCCCC1 (centres unmarked) [ditropan],made it worse,–,–,–,–,–,–
